The values that follow come from paper PMC6253249, “Protein-Ligand Fishing in planta for Biologically Active Natural Products Using Glutathione Transferases” (Frontiers in Plant Science, 2018).

The structures appear in SMILES notation. Some results are limits rather than exact numbers.

For one test, the target named is T1, AtGSTF2 (Arabidopsis thaliana, UniProt P46422).
T1 construct: Strep-tag (N); made in house; host or cells: Escherichia coli (minimal medium)
T1 sequence (P46422 1-212): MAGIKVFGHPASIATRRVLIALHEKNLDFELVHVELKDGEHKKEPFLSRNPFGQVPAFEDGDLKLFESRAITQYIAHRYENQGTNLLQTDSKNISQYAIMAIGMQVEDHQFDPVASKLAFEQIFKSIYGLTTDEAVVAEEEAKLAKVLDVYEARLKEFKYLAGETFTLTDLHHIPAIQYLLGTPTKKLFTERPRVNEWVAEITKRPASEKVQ
Kind of test: Isothermal titration calorimetry (ITC) of ligand binding to Strep-tagged AtGSTF2. The following applies: for N (binding stoichiometry) / ΔH: 25°C, HBS, 1 mM glutathione, 0.1% w/v Tween 20. The method, then:
(§1) Isothermal titration calorimetry (ITC) experiments were performed at 25°C in HBS buffer and analyzed using a VP-ITC instrument with Origin 7.0 software (GE Healthcare, Amersham, United Kingdom). Where ligands were added in solvents, an equivalent volume of ethanol was used as control. With the flavonols, 0.1% w/v Tween 20 was used to increase ligand solubility. In addition to titrating ligand into protein, control titrations of ligand into buffer and buffer into protein were performed. For studies with AtGSTF2, the respective Strep-tagged protein was purified from E. coli grown in minimal medium to minimize contamination with pre-bound ligands and used in ITC assuming 1:1 binding to ligand, as previously determined ([Dixon et al., 2011]).
(§2) To investigate the binding characteristics of the ligands to the GSTs, isothermal titration calorimetry (ITC) was used to determine binding affinity and stoichiometry. With AtGSTF2 the commercially available compounds kaempferol and kaempferol-3,7′-dimethylether were used, along with the methylated flavonols purified from the surface of the tobacco leaves (Table 2 and Supplementary Figure S4). […] When AtGSTU19 was tested with ISSG, tight and stoichiometric binding was determined (Table 2 and Supplementary Figure S5). AtGSTU19 enzyme activity, as determined by the GSH conjugation of 1-chloro-2,4-dinitrobenzene, was inhibited by ISSG in a competitive manner with respect to GSH, confirming that ISSG binding occurred at the enzyme active site.
Supplementary Figure S4. Typical ITC data for GSTF2 (7.7 µM) binding to compound 11 (putative kaempferol-3,7’-dimethylether). The experiment was performed in HBS containing 1 mM GSH, 0.1% Tween 20 and 1% ethanol. The associated line indicates best fit curves for a one set of sites binding model.
For orientation: ITC needs no label: the signal is the heat of the interaction.

Test [1] deals with T2, AtGSTU19 (Arabidopsis thaliana, UniProt Q9ZRW8).
T2 construct: Strep-tag (N)
Kind of test: Isothermal titration calorimetry (ITC) of ligand binding to AtGSTU19. The following applies: 25°C, HBS, no cofactor listed. The method, then: as §1, §2
Supplementary Figure S5. Analysis of GSTU19 ligand binding by ITC.
Binding of ISSG to 11.1 uM GSTU19. A best fit line corresponding to a one set of
sites binding model is shown.

Test [2] deals with T2, AtGSTU19. Kind of test: AtGSTU19 enzyme activity, GSH conjugation of 1-chloro-2,4-dinitrobenzene, inhibition. The test is classed as biochemical. The following applies: with respect to GSH; substrate 1-chloro-2,4-dinitrobenzene. On the procedure:
as §2

A further test addresses T3, GSTU19 (Arabidopsis thaliana, UniProt Q9ZRW8).
T3 construct: recombinant, Strep-tagged
Nature of the test: Isothermal titration calorimetry at 25 °C in HBS, ligand titrated into GSTU19, no GSH marked for these rows, one-set-of-sites fit. The following applies: read-out: Ka (μM^-1) (converted). The class given is binding. On the procedure:
as §1
To investigate the binding characteristics of the ligands to the GSTs, isothermal titration calorimetry (ITC) was used to determine binding affinity and stoichiometry. […] When AtGSTU19 was tested with ISSG, tight and stoichiometric binding was determined (Table 2 and Supplementary Figure S5). AtGSTU19 enzyme activity, as determined by the GSH conjugation of 1-chloro-2,4-dinitrobenzene, was inhibited by ISSG in a competitive manner with respect to GSH, confirming that ISSG binding occurred at the enzyme active site. […]

For the next test, the system named is GSTUs from poppy. Also on record: method as in Yu and Facchini, 2000. The following applies: ref Yu and Facchini, 2000; cited from earlier work.

T2 sequence (Q9ZRW8 whole entry): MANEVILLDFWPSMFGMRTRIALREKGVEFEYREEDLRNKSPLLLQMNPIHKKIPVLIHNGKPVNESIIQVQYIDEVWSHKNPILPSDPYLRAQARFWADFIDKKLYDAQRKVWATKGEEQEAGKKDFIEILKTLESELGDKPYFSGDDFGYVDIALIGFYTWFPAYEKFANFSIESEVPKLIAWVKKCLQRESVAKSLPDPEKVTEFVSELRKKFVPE
T3 sequence (Q9ZRW8 whole entry): as above

Turning to `COc1cc(O)c2c(=O)c(OC)c(-c3ccc(O)cc3)oc2c1` [Compound 11, kaempferol-3,7′-dimethylether], on AtGSTF2, the Kd was 0.22 µM.

As to `COc1ccc(-c2oc3cc(OC)cc(O)c3c(=O)c2OC)cc1` [Compound 13, kaempferol-3,7,4′-trimethylether], at AtGSTF2, the Kd was < 1 µM, the “N (binding stoichiometry)” value is 0.54 ± 0.01 and the ΔH was -77 ± 0.84 kJ/mol.

On to `NC(CCC(=O)NC(CSSCc1c[nH]c2ccccc12)C(=O)NCC(=O)O)C(=O)O` (stereo not drawn) [ISSG, 3-methylindolyl glutathionyl disulfide], for which, at AtGSTU19 [1], the “N (binding stoichiometry)” value stood at 0.98 ± 0.01 and the ΔH was -44.4 ± 0.42 kJ/mol. For the same molecule, the “Mode of inhibition of AtGSTU19 enzyme activity” value on AtGSTU19 [2] was “competitive”.

For the molecule `N[C@@H](CCC(=O)N[C@@H](CSSCc1c[nH]c2ccccc12)C(=O)NCC(=O)O)C(=O)O` [ISSG, 3-methylindolyl glutathionyl disulfide], the Kd at GSTU19 is 0.117 µM.

Regarding `CCCCCCSC[C@H](NC(=O)CC[C@H](N)C(=O)O)C(=O)NCC(=O)O` [S-hexylglutathione, reference compound], at AtGSTU19 [1], the “N (binding stoichiometry)” value is recorded as 0.84 ± 0.01 and the ΔH is -49.4 ± 0.42 kJ/mol.

Take `CCCCCCSC[C@H](NC(=O)CC[C@H](N)C(=O)O)C(=O)NCC(=O)O` [S-hexylglutathione]: the Kd at GSTU19 is 0.311 µM.

Regarding `COc1cc(/C=C/C(=O)NCCc2ccc(O)cc2)ccc1O` [feruloyltyramine, N-trans-feruloyltyramine], the “Inhibition of poppy GSTUs (in words)” value in the test with GSTUs from poppy was “weakly inhibiting”.

For `O=c1c(O)c(-c2ccc(O)cc2)oc2cc(O)cc(O)c12` [kaempferol, reference compound], on AtGSTF2, the Kd worked out at 12 µM, the “N (binding stoichiometry)” value was found to be 0.60 ± 0.05 and the ΔH is -52.7 ± 5.86 kJ/mol.
